Experiments:
[1] = tested on: uterine C3 expression (complement 3 mRNA; PR antagonist potential); experiment: C3 Rat Uterine Assay; format: in vivo, Sprague Dawley female rats; details: immature female rats, oral gavage, with R5020 0.1 mg/kg sc and ethynyl estradiol 50 ug/kg, 3 doses at 24 hour intervals
Experimental: Addition of a potential PR antagonist can then neutralize the blocking effect of the PR agonist, resulting in a measurable increase in uterine C3 expression.
Immature Sprague Dawley female rats (21 days old, each approximately 50 g in weight) are first administered the R5020 progestin subcutaneously in sesame oil vehicle at 0.1 mg/kg. The rats are then treated with ethynyl estradiol at a dose of 50 ug/kg plus a compound of interest at doses ranging from 1-30 mg/kg made up in 20% β-hydroxycyclodextran in water for an oral gavage volume of 0.3 ml. This dosing is done 3 times at 24 hour intervals. The control groups include rats treated with one of the following (administered and dosed as described above): 1) estrogen (E2) vehicle+R5020 vehicle, 2) E2+R5020 vehicle, 3) E2+R5020, and 4) E2+R5020+asoprisnil (comparator compound, 5 mg/kg). The rats are sacrificed by decapitation 2 hours after the final dose (50 hours total dosing time). Uteri are removed and cleaned of adipose tissue, and ½ (1 uterine horn) is flash-frozen in liquid nitrogen. The tissue is homogenized in TRIzol reagent using lysing matrix beads.
The RNA is isolated by chloroform extraction of the homogenized tissue, followed by isopropanol precipitation of the aqueous layer. The RNA is further purified by binding to a silica-gel based membrane or magnetic bead with a nucleic acid binding surface, and then eluted off with water. The RNA is converted to single strand cDNA via reverse transcriptase. These cDNA templates are analyzed by quantitative real-time PCR which multiplexes the C3 primer/probe set to an endogenous control gene. The resulting C3 data is normalized to the internal control. (Adapted from Lundeen, S. G. et al. J. Steroid Biochemistry and Molecular Biology, 2001, 78, 137-143.) Table 9 below provides data for representative compounds prepared according to the present invention.

[2] = molecular target: T1, human progesterone receptor (PR) (Homo sapiens, UniProt P06401); experiment: PR CTF assay (co-transfected HEK293 cells, GRE-luciferase reporter); format: cell-based; details: antagonist mode, with 0.05-0.08 nM R5020, 24 h
T1 construct: expressed in transfected cells; host or cells: HEK293
T1 sequence (P06401 1-933): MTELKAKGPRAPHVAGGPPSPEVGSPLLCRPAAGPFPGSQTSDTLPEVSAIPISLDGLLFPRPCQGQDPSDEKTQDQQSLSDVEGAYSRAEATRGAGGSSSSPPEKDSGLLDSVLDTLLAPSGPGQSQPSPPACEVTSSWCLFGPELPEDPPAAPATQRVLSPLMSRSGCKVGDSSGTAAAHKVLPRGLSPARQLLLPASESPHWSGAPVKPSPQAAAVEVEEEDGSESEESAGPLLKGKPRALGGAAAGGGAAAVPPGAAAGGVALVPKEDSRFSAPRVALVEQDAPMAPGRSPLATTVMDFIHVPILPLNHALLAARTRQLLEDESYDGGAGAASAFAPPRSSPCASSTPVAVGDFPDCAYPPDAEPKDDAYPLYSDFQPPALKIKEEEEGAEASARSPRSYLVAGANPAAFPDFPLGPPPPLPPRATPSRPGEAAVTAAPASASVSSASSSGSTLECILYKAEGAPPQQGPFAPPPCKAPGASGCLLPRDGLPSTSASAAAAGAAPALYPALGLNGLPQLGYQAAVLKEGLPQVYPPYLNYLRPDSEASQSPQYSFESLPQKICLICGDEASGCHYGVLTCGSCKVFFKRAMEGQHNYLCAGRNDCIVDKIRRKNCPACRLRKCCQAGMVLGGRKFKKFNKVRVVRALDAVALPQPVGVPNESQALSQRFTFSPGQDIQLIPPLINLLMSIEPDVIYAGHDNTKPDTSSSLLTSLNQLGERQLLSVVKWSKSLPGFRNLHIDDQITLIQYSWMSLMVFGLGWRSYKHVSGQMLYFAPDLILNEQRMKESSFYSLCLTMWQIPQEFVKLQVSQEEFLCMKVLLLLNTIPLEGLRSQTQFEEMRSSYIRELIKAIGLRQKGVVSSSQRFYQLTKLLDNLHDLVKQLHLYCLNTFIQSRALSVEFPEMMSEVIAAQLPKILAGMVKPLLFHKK
Experimental: Human embryonic kidney HEK293 cells are co-transfected using Fugene. Briefly, the reporter plasmid pGL3 containing two copies of GRE (glucocorticoid response element ^5'[NT]3) and TK promoter upstream of the luciferase reporter cDNA is transfected with a plasmid constitutively expressing human progesterone receptor (PR), using viral CMV promoter. Cells are transfected in T225 cm^2 flasks in DMEM media with 5% charcoal-stripped Fetal Bovine Serum (FBS). After an overnight incubation, transfected cells are trypsinized, plated in 96 well dishes in DMEM media containing 5% charcoal-stripped FBS, incubated for 4 h and then exposed to various concentrations of test compounds in 1:4 dilution increments. In the antagonist assays low concentrations of agonist (0.05-0.08 nM of R5020) is also added to the media. After 24 h of incubation with compounds, cells are lysed and luciferase activity is determined. Data is fit to a 4 parameter-fit logistics curve to determine EC50 and IC50 values. The % efficacy is determined versus maximum stimulation obtained with 30 nM R5020. In the antagonist mode the % inhibition is determined verses the effects of 30 nM R5020 alone.

[3] = tested on: uterine endometrial transformation; experiment: McPhail Assay; format: in vivo, New Zealand White Rabbits; details: rabbits; for McPhail Index** @ 10 mpk (Antagonist Mode): in combination with progesterone on days 7-12, antagonist mode; for McPhail Index** @ 30 mpk (Agonist Mode): compound alone on days 7-12, agonist mode
Experimental: The effects of progesterone receptor modulators on uterine endometrial transformation are evaluated in New Zealand White Rabbits (Harlan, 800-900 g) using the McPhail assay adapted from McPhail, MK. J Physiol, 1934:145-156. To evaluate antagonistic effects of compounds, the rabbits are treated sc with cyclodextrin-encapsulated 17-β-estradiol (Sigma, 10.52 ug/kg/day in 1 ml of saline) on days 1-6. The rabbits are then treated sc with progesterone (Sigma, 1.0 mg/kd/day in 1 ml of corn oil) in combination with compound of the present invention (in 15% Povidone K12, 10% Pluronic F68 (poloxamer 188) in deionized water (DIW): probe sonicated to mean<2 micron, 3 ml dose volume) on days 7-12. To evaluate agonist effects of compound, the rabbits are treated with either a compound of interest or progesterone alone on days 7-12. On day 13 the animals are sacrificed, uteri removed and fixed in zinc formalin (Richard-Allan Scientific). The fixed uteri are sectioned into 2-3 mm transverse slices and stained with haematoxylin and eosin. A total of six slices (a proximal, medial and distal section from each uterine horn) are evaluated histologically and the progestational effect is scored using the McPhail index. The McPhail test can be used to identify SPRMs.

Row | Structure (SMILES) | ED50 [1] | IC50 [2] | McPhail Index** @ 10 mpk (Antagonist Mode) [3] | McPhail Index** @ 30 mpk (Agonist Mode) [3] | melting point
1 | Cc1cc(-c2cn(C(C)C)c3cc(NS(C)(=O)=O)ccc23)ccc1C#N [Ex 49, N-[3-(4-Cyano-3-methyl-phenyl)-1-isopropyl-1H-indol-6-yl]-methanesulfonamide] | < 5 mg/kg | – | – | – | –
2 | CC(C)n1cc(-c2ccc(C#N)nc2)c2ccc(NS(C)(=O)=O)cc21 [Example 48, N-[3-(6-Cyano-pyridin-3-yl)-1-isopropyl-1H-indol-6-yl]-methanesulfonamide] | < 5 mg/kg | ~11.7 nM | + (+ <2) | + (+ <2) | –
3 | CC(C)n1cc(-c2ccc(C#N)c(Cl)c2)c2ccc(NS(C)(=O)=O)cc21 [Example 50, N-[3-(4-Cyano-3-chloro-phenyl)-1-isopropyl-1H-indol-6-yl]-methanesulfonamide] | < 5 mg/kg | – | + (+ <2) | + (+ <2) | –
4 | CCCCn1cc(-c2ccc(C#N)c(F)c2)c2ccc(NS(C)(=O)=O)cc21 [Example 53, N-[1-Butyl-3-(4-cyano-3-fluoro-phenyl)-1H-indol-6-yl]-methanesulfonamide] | > 10 mg/kg | – | +++ (+++ ≧3) | ++ (++ 2-3) | –
5 | CC(C)n1cc(-c2cc(C#N)nn2C)c2ccc(NS(C)(=O)=O)cc21 [Example 121, N-[3-(5-Cyano-2-methyl-2H-pyrazol-3-yl)-1-isopropyl-1H-indol-6-yl]-methanesulfonamide] | – | – | – | – | 189 to 191 °C
6 | CCn1nc(C#N)cc1-c1cn(C(C)C)c2cc(NS(C)(=O)=O)ccc12 [Example 124, N-[3-(5-Cyano-2-ethyl-2H-pyrazol-3-yl)-1-isopropyl-1H-indol-6-yl]-methanesulfonamide] | – | – | – | – | 144 to 145 °C
7 | CC(C)n1cc(-c2cc(F)c(C#N)c(F)c2)c2ccc(NS(C)(=O)=O)cc21 [Example 170, N-[3-(4-Cyano-3,5-difluoro-phenyl)-1-isopropyl-1H-indol-6-yl]-methanesulfonamide] | < 5 mg/kg | – | +++ (+++ ≧3) | +++ (+++ ≧3) | –
8 | CC(C)n1cc(-c2ccc([N+](=O)[O-])cc2)c2ccc(NS(C)(=O)=O)cc21 [Example 197, N-[1-Isopropyl-3-(4-nitro-phenyl)-1H-indol-6-yl]-methanesulfonamide] | < 5 mg/kg | – | ++ (++ 2-3) | + (+ <2) | –
